Like-named read-outs stand apart in the source and are kept apart here.
How the values were obtained:
[1] = test system: sphincter of Oddi; assay: Rabbit model for contraction of sphincter of Oddi (perfusion pressure in sphincter of Oddi); format: in vivo
Experimental: The method described in Wei J G et al., World J. Gastroenterol., 6, 102 (2000) was partially modified and used for measurement of a change in the perfusion pressure in sphincter of Oddi. The change in the perfusion pressure reflects the motility of a contractive change of sphincter of Oddi.
Male NZW rabbits (Japan SLC) which had body weights of 2.0 to 2.5 kg upon delivery were fasted from the evening of the day before the experiment. The experiment was carried out under anesthesia with pentobarbital, with artificial ventilation. Each rabbit was immobilized in the supine position and subjected to abdominal incision to expose the periduodenal area and the common bile duct. A small incision was made in the common bile duct, and a cannula was inserted into the common bile duct toward the duodenum side, followed by indwelling its tip in sphincter of Oddi (sphincter ampullae). For biliary excretion, another cannula was inserted into the bile duct toward the gallbladder side and immobilized. From the other end of the cannula whose tip was indwelled in the sphincter of Oddi, physiological saline was continuously injected at a flow rate of 6 mL/hour to allow perfusion in the sphincter of Oddi. By recording the perfusion pressure with a blood pressure monitoring transducer (DX-300, Nihon Kohden Corporation), the contraction reaction of sphincter of Oddi was measured.
To the rabbit, 5% aqueous mannitol solution, which is the vehicle for the Compound 1 solution, was administered via the jugular vein. Further, not less than 30 minutes after the administration of the vehicle, Compound 1 was administered to the same individual at a dose of 0.2 μg/kg via the jugular vein. The administration volume of the vehicle and Compound 1 was 1 mL/kg, and the administration was carried out for 60 seconds.
Thus, in the Compound 1-administered group, the rate of change in the maximum perfusion pressure was lower compared to the vehicle-administered group, and this difference was significant (*p<0.05, paired t-test).

[2] = test system: sphincter of Oddi; assay: Sphincter of Oddi perfusion pressure after intravenous administration to a dog (literature); format: in vivo
Experimental: Further, gabexate mesilate reduces the sphincter of Oddi perfusion pressure by 6.9 mmH2O (corresponds to 0.51 mmHg) or 10.6 mmH2O (corresponds to 0.78 mmHg) when it is intravenously administered to a dog at a dose of 1 mg/kg or 3 mg/kg, respectively (Yamasato T. et al., J Smooth Muscle Res., 27, 87 (1991). Since oxapium iodide is usually orally administered at a dose of 30 to 60 mg per adult per day dividedly in 3 times, and 100 mg of gabexate mesilate is usually dissolved in 500 mL of Ringer's solution and the resulting solution is administered by intravenous drip infusion at a rate of not more than 8 mL/minute, the above-described doses are considered to be equivalent to the clinical doses of those drugs.

[3] = test system: sphincter of Oddi; settings: dog, intravenous, cited from earlier work
[4] = test system: biliary tract; settings: nalbuphine not statistically significant; butorphanol statistically significant; cited from earlier work
[5] = test system: sphincter of Oddi; settings: animal experiments, high doses; cited from earlier work
[6] = test system: sphincter of Oddi; settings: literature reports; cited from earlier work

CN(C(=O)/C=C/c1ccoc1)[C@@H]1CC[C@@]2(O)[C@H]3Cc4ccc(O)c5c4[C@@]2(CCN3CC2CC2)[C@H]1O5.Cl [Compound 1, (−)-17-(cyclopropylmethyl)-3,14β-dihydroxy-4,5α-epoxy-6β-[N-methyl-trans-3-(3-furyl)acrylamido]morphinan hydrochloride]
reduction of the actual value of the maximum perfusion pressure ([1]; 0.2 μg/kg intravenous to rabbits, on average): 0.95 mmHg | action on contraction of sphincter of Oddi (conclusion in words) ([1]; 0.2 μg/kg intravenous, rabbit): has an action to inhibit contraction of sphincter of Oddi | rate of change in the maximum perfusion pressure (Oddi muscle contraction (Delta %)) ([1]; 0.2 μg/kg intravenous, 3 minutes after vs 3 minutes before beginning of administration, mean, N=11, vehicle 99.81%, p<0.05): 93.32%

C[N+]1(CC2COC(c3ccccc3)(C3CCCCC3)O2)CCCCC1 (stereo not drawn) [Oxapium iodide]
reduction of the sphincter of Oddi perfusion pressure (converted) ([2]; 0.3 mg/kg): 0.74 mmHg | reduction of the sphincter of Oddi perfusion pressure ([3]; 0.3 mg/kg (Tamasawa Y. et al. 1972)): about 10 mmH2O

Oc1ccc2c(c1)[C@@]13CCCC[C@@]1(O)[C@@H](C2)N(CC1CCC1)CC3 [butorphanol]
increase of the inner pressure of biliary tract [4]: 12%

CN1CC[C@]2(C)C[C@@H](Cc3ccc(O)cc32)C1 [eptazocine]
contraction of sphincter of Oddi [5]: shows an action to cause contraction of sphincter of Oddi

CCOC(=O)c1ccc(OC(=O)CCCCCNC(=N)N)cc1 [gabexate mesilate]
reduction of the sphincter of Oddi perfusion pressure (converted) ([2]; 1 mg/kg): 0.51 mmHg | reduction of the sphincter of Oddi perfusion pressure (converted) ([2]; 3 mg/kg): 0.78 mmHg | reduction of the sphincter of Oddi perfusion pressure ([3]; 1 mg/kg (Yamasato T. et al. 1991)): 6.9 mmH2O | reduction of the sphincter of Oddi perfusion pressure ([3]; 3 mg/kg (Yamasato T. et al. 1991)): 10.6 mmH2O

Oc1ccc2c3c1O[C@H]1[C@@H](O)CC[C@@]4(O)[C@@H](C2)N(CC2CCC2)CC[C@]314 [nalbuphine]
action on contraction of sphincter of Oddi [6]: does not exert any action on contraction of sphincter of Oddi

C=CCN1CC[C@]23c4c5ccc(O)c4O[C@H]2C(=O)CC[C@@]3(O)[C@H]1C5 [naloxone]
action on contraction of sphincter of Oddi [6]: have an action to inhibit contraction of sphincter of Oddi

COc1cccc(C2(O)CCCCC2CN(C)C)c1 (stereo not drawn) [tramadol]
contraction of sphincter of Oddi [5]: causes contraction of sphincter of Oddi

methionine enkephalin
action on contraction of sphincter of Oddi [6]: cause transient contraction of sphincter of Oddi, followed by showing a continuous contraction inhibition action

— US10131672B2, “Therapeutic or prophylactic agent for biliary diseases” (Toray Industries, Inc., priority 2010, dated 2018)
